Consider 62 molecules from US8666675B2, “Computer method and system for predicting physical properties using a conceptual segment model” (Aspen Technology, Inc., priority 2004, dated 2014).

Series [1] can be described thus: Solvent characteristics (hydrophobic / polar / hydrophilic / complex). Format: physicochemical. An excerpt: […] conceptual segments were defined for nonelectrolyte molecules: a hydrophobic segment, a polar segment, a hydrophilic segment and a solvation segment. […] Real molecules in turn are used as reference molecules for the conceptual segments and available phase equilibrium data of these reference molecules are used to identify NRTL binary parameters for the conceptual segments. […] The study was focused on the 59 ICH solvents used in pharmaceutical process design.
Hydrocarbon solvents (aliphatic or aromatic), halogenated hydrocarbons, and ethers are mainly hydrophobic. Ketones, esters and amides are both hydrophobic and polar. Alcohols, glycols, and amines may have both substantial hydrophilicity and hydrophobicity. Acids are complex, with hydrophilicity, polarity, and hydrophobicity.

The conditions of series [2]: compiled from internet websites and Aspen Properties v2004.1; cited from earlier work.
The conditions of series [3]: in chloroform and DMF, 298.15K; cited from earlier work.

Consider `CC(Cl)(Cl)Cl` [1,1,1-TRICHLOROETHANE, 1,1,1-Trichloroethane], for which the Solvent characteristics result in series [1] is listed as “Hydrophobic”. Further, the “dielectric constant at 298.15 K” value in series [2] is reported as 7.5.

Take `C=C(Cl)Cl` [1,1-DICHLOROETHYLENE, 1,1-Dichloroethylene]: the Solvent characteristics entry in series [1] is “Hydrophobic”. Moreover, in series [2], the “dielectric constant at 298.15 K” value is recorded as 4.6.

Consider `c1ccc2c(c1)CCCC2` [1,2,3,4-TETRAHYDRONAPHTHALENE, 1,2,3,4-Tetrahydronaphthalene], for which the Solvent characteristics result in series [1] is given as “Hydrophobic”.

With `ClCCCl` [1,2-DICHLOROETHANE, 1,2-Dichloroethane], in series [1], the Solvent characteristics entry was “Hydrophobic”. For the same molecule, the “dielectric constant at 298.15 K” value in series [2] is 10.19.

Consider `ClC=CCl` [1,2-DICHLOROETHYLENE, 1,2-Dichloroethylene], for which the Solvent characteristics result in series [1] was “Hydrophobic”. In series [2], the “dielectric constant at 298.15 K” value was 4.6.

For the molecule `COCCOC` [1,2-DIMETHOXYETHANE, 1,2-Dimethoxyethane], the Solvent characteristics result in series [1] is on record as “Polar”.

As to `C1COCCO1` [1,4-DIOXANE, 1,4-Dioxane], the Solvent characteristics entry in series [1] is recorded as “Polar”. Also, the “dielectric constant at 298.15 K” value in series [2] is reported as 2.21.

With `CCCCO` [1-BUTANOL, 1-Butanol], the Solvent characteristics entry in series [1] is recorded as “Hydrophobic/”. In addition, the “dielectric constant at 298.15 K” value in series [2] is 17.7.

As to `CCCCCCCCO` [1-OCTANOL, 1-Octanol], the Solvent characteristics result in series [1] was “Hydrophobic/”. The “dielectric constant at 298.15 K” value in series [2] is 10.3.

Consider `CCCCCO` [1-PENTANOL, 1-Pentanol], for which the Solvent characteristics result in series [1] is reported as “Hydrophobic/”. Also, the “dielectric constant at 298.15 K” value in series [2] is on record as 13.9.

With `CCCO` [1-PROPANOL, 1-Propanol], the Solvent characteristics result in series [1] is reported as “Hydrophobic/”. Moreover, the “dielectric constant at 298.15 K” value in series [2] is recorded as 20.1.

`CCC(C)O` (centres unmarked) [2-BUTANOL, 2-Butanol]: the Solvent characteristics result in series [1] is “Hydrophobic/”. Moreover, the “dielectric constant at 298.15 K” value in series [2] is on record as 15.8.

On to `CCOCCO` [2-ETHOXYETHANOL, 2-Ethoxyethanol], for which the Solvent characteristics entry in series [1] is “Hydrophobic/”.

As to `COCCO` [2-METHOXYETHANOL, 2-Methoxyethanol], in series [1], the Solvent characteristics result is recorded as “Hydrophobic/”.

In the case of `CC(C)CCO` [3-METHYL-1-BUTANOL, 3-Methyl-1-butanol], the Solvent characteristics result in series [1] is listed as “Hydrophobic/”. The “dielectric constant at 298.15 K” value in series [2] is on record as 14.7.

In the case of `CC(=O)O` [ACETIC-ACID, Acetic acid], the Solvent characteristics entry in series [1] is “Complex”. Besides, the “dielectric constant at 298.15 K” value in series [2] was 6.13.

Turning to `CC(C)=O` [ACETONE, Acetone], the Solvent characteristics result in series [1] is “Polar”. Besides, the “dielectric constant at 298.15 K” value in series [2] is 20.83.

In the case of `CC#N` [ACETONITRILE, Acetonitrile], the Solvent characteristics result in series [1] is “Polar”. Besides, in series [2], the “dielectric constant at 298.15 K” value is 36.97.

Consider `COc1ccccc1` [ANISOLE, Anisole], for which, in series [1], the Solvent characteristics entry is “Hydrophobic”. The “dielectric constant at 298.15 K” value in series [2] is 4.3.

Turning to `c1ccccc1` [BENZENE, Benzene], in series [1], the Solvent characteristics result is given as “Hydrophobic”. Further, the “dielectric constant at 298.15 K” value in series [2] is 2.27.

Take `ClC(Cl)(Cl)Cl` [CARBON-TETRACHLORIDE, Carbon-tetrachloride]: the Solvent characteristics entry in series [1] is on record as “Hydrophobic”. Also, the “dielectric constant at 298.15 K” value in series [2] is recorded as 2.23.

As for `Clc1ccccc1` [CHLOROBENZENE, Chlorobenzene], in series [1], the Solvent characteristics entry is recorded as “Hydrophobic”. In addition, in series [2], the “dielectric constant at 298.15 K” value is on record as 5.56.

For `ClC(Cl)Cl` [CHLOROFORM, Chloroform], the Solvent characteristics result in series [1] was “Hydrophobic”.

As to `CC(C)c1ccccc1` [CUMENE, Cumene], the Solvent characteristics entry in series [1] is recorded as “Hydrophobic”. In series [2], the “dielectric constant at 298.15 K” value is listed as 2.22.

Regarding `C1CCCCC1` [CYCLOHEXANE, Cyclohexane], the Solvent characteristics result in series [1] was “Hydrophobic”. Further, in series [2], the “dielectric constant at 298.15 K” value is recorded as 2.02.

As for `ClCCl` [DICHLOROMETHANE, Dichloromethane], the Solvent characteristics result in series [1] is “Polar”. Also, the “dielectric constant at 298.15 K” value in series [2] is recorded as 8.9.

For the molecule `CCOCC` [DIETHYL-ETHER, Diethyl-ether], the Solvent characteristics entry in series [1] is given as “Hydrophobic”. Further, in series [2], the “dielectric constant at 298.15 K” value is recorded as 4.26.

As for `C[S+](C)[O-]` [Dimethyl-sulfoxide], in series [1], the Solvent characteristics entry is reported as “Polar”. The “dielectric constant at 298.15 K” value in series [2] is listed as 47.2.

With `CCO` [ETHANOL, Ethanol], in series [1], the Solvent characteristics entry is “Hydrophobic/”. In addition, the “dielectric constant at 298.15 K” value in series [2] is on record as 24.11.

Take `CCOC(C)=O` [ETHYL-ACETATE, Ethyl-acetate]: the Solvent characteristics result in series [1] is “Hydrophobic/Polar”. The “dielectric constant at 298.15 K” value in series [2] is 6.02.

On to `CCOC=O` [ETHYL-FORMATE, Ethyl-formate], for which the Solvent characteristics result in series [1] was “Polar”. Also, the “dielectric constant at 298.15 K” value in series [2] is 7.16.

With `OCCO` [Ethylene-glycol], the Solvent characteristics result in series [1] is “Hydrophilic”.

Regarding `NC=O` [FORMAMIDE, Formamide], the Solvent characteristics result in series [1] is on record as “Complex”. Besides, the “dielectric constant at 298.15 K” value in series [2] is given as 109.5.

As to `O=CO` [FORMIC-ACID, Formic-acid], the Solvent characteristics entry in series [1] is given as “Complex”.

Turning to `O=C(CCCN1CCC(O)(c2ccc(Cl)cc2)CC1)c1ccc(F)cc1` [Haloperidol], the solubility result in series [3] is on record as “unusually high solubilities”.

In the case of `CC(C)CO` [ISOBUTANOL, Isobutanol], the Solvent characteristics result in series [1] is on record as “Hydrophobic/”. Moreover, the “dielectric constant at 298.15 K” value in series [2] is on record as 17.9.

In the case of `CC(=O)OCC(C)C` [ISOBUTYL-ACETATE, Isobutyl-acetate], the Solvent characteristics result in series [1] is “Polar”. For the same molecule, the “dielectric constant at 298.15 K” value in series [2] is reported as 5.6.

In the case of `CC(=O)OC(C)C` [ISOPROPYL-ACETATE, Isopropyl-acetate], the Solvent characteristics result in series [1] is “Polar”.

Take `CC(C)O` [ISOPROPYL-ALCOHOL, Isopropyl-alcohol]: the Solvent characteristics result in series [1] was “Hydrophobic/”. For the same molecule, the “dielectric constant at 298.15 K” value in series [2] is 19.9.

As to `Cc1cccc(C)c1` [M-XYLENE, m-Xylene], in series [1], the Solvent characteristics result is given as “Hydrophobic”. In addition, the “dielectric constant at 298.15 K” value in series [2] was 2.24.

`CO` [METHANOL, Methanol]: the Solvent characteristics entry in series [1] was “Hydrophobic/”. The “dielectric constant at 298.15 K” value in series [2] was 32.62.

Consider `COC(C)=O` [METHYL-ACETATE, Methyl-acetate], for which the Solvent characteristics result in series [1] is “Polar”. For the same molecule, the “dielectric constant at 298.15 K” value in series [2] is 6.68.

With `CCC(C)=O` [METHYL-ETHYL-KETONE, Methyl-ethyl-ketone], the Solvent characteristics result in series [1] is listed as “Hydrophobic/Polar”. Besides, the “dielectric constant at 298.15 K” value in series [2] is listed as 18.5.

Regarding `CC(=O)CC(C)C` [METHYL-ISOBUTYL-KETONE, Methyl-isobutyl-ketone], the Solvent characteristics result in series [1] is “Hydrophobic/Polar”. For the same molecule, the “dielectric constant at 298.15 K” value in series [2] is 13.1.

In the case of `COC(C)(C)C` [METHYL-TERT-BUTYL-ETHER, Methyl-tert-butyl-ether], in series [1], the Solvent characteristics result is given as “Hydrophobic”. Further, the “dielectric constant at 298.15 K” value in series [2] is 2.6.

As to `CC1CCCCC1` [METHYLCYCLOHEXANE, Methylcyclohexane], the Solvent characteristics result in series [1] is “Polar”. Moreover, the “dielectric constant at 298.15 K” value in series [2] was 2.02.

As for `CN(C)C=O` [N,N-DIMETHYLFORMAMIDE, N,N-Dimethylformamide], in series [1], the Solvent characteristics result is on record as “Polar”. The “dielectric constant at 298.15 K” value in series [2] is on record as 38.3.

In the case of `CCCCOC(C)=O` [N-BUTYL-ACETATE, n-Butyl-acetate], in series [1], the Solvent characteristics result is recorded as “Hydrophobic/Polar”. Besides, the “dielectric constant at 298.15 K” value in series [2] is recorded as 5.1.

In the case of `CCCCCCC` [N-HEPTANE, n-Heptane], the Solvent characteristics result in series [1] is on record as “Hydrophobic”. Also, the “dielectric constant at 298.15 K” value in series [2] is reported as 1.92.

Take `CCCCCC` [N-HEXANE, n-Hexane]: in series [1], the Solvent characteristics entry was “Hydrophobic”.

Consider `CN1CCCC1=O` [N-METHYL-2-PYRROLIDONE, N-Methyl-2-pyrrolidone], for which, in series [1], the Solvent characteristics entry is recorded as “Hydrophobic”. Moreover, the “dielectric constant at 298.15 K” value in series [2] is recorded as 33.

Consider `CCCCC` [N-PENTANE, n-Pentane], for which the Solvent characteristics entry in series [1] is “Hydrophobic”. Moreover, in series [2], the “dielectric constant at 298.15 K” value is reported as 1.84.

Turning to `CCCOC(C)=O` [N-PROPYL-ACETATE, n-propyl-acetate], the Solvent characteristics entry in series [1] is reported as “Hydrophobic/Polar”. Besides, the “dielectric constant at 298.15 K” value in series [2] was 6.

For `C[N+](=O)[O-]` [NITROMETHANE, Nitromethane], in series [1], the Solvent characteristics result is on record as “Polar”. Besides, in series [2], the “dielectric constant at 298.15 K” value is reported as 6.26.

`c1ccncc1` [PYRIDINE, Pyridine]: the Solvent characteristics result in series [1] is listed as “Polar”.

`O=S1(=O)CCCC1` [SULFOLANE, Sulfolane]: the Solvent characteristics entry in series [1] is “Polar”. In series [2], the “dielectric constant at 298.15 K” value is given as 43.3.

Take `C1CCOC1` [TETRAHYDROFURAN, Tetrahydrofuran]: the Solvent characteristics entry in series [1] was “Polar”. Also, in series [2], the “dielectric constant at 298.15 K” value was 7.52.

For `Cc1ccccc1` [TOLUENE, Toluene], in series [1], the Solvent characteristics entry is listed as “Hydrophobic”. Further, the “dielectric constant at 298.15 K” value in series [2] is recorded as 2.36.

For the molecule `ClC=C(Cl)Cl` [TRICHLOROETHYLENE, Trichloroethylene], in series [1], the Solvent characteristics result is reported as “Hydrophobic”. Besides, the “dielectric constant at 298.15 K” value in series [2] is 3.42.

Take `CCN(CC)CC` [TRIETHYLAMINE, Triethylamine]: in series [1], the Solvent characteristics entry is “Hydrophobic/Polar”. Also, the “dielectric constant at 298.15 K” value in series [2] is 2.44.

As to `O` [WATER, Water], the Solvent characteristics entry in series [1] was “Hydrophilic”. Also, the “dielectric constant at 298.15 K” value in series [2] was 78.54.

Consider methyl-butyl-ketone (2-hexanone), for which the Solvent characteristics entry in series [1] is “Hydrophobic/Polar”. Besides, the “dielectric constant at 298.15 K” value in series [2] is recorded as 14.6.
